Test results taken from PubChem BioAssay AID540271 (Broad Institute, 2011).
Several values for one entry are separate records, joined by “and”; a condition that tells them apart may be missing. Equal entries are not always repeated. Activity calls are given as the source filed them. How the calls were made is not given here.

Tested on: S. cerevisiae expressing PfHSP40, growth rescue, plate reader
Experiment: S cerevisiae expressing PfHSP40, growth rescue, cherry pick dose confirmatory, plate reader (AID 540271);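 further: yeast growth read after three days of incubation at 30 °C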

Row | SMILES | AC50
1 | O=C(C=Cc1cccc(O)c1)c1ccccc1O | 2.1 µM
2 | CCc1cc(C(N)=O)c(NC(=O)c2ccc(OC)cc2)s1 | 1.77 µM
3 | COC(=O)C1=NN(C(=O)c2cccc(Br)c2)C(O)(c2ccc(Cl)cc2)C1 (configuration not stated) | 5.82 µM
4 | CCOc1ccc(-n2c(O)c(/C=N/NC(=O)C3COc4ccccc4O3)c3ccccc3c2=O)cc1 (configuration not stated) | 4.11 µM
5 | Cc1ccc(C2(c3ccc(C)cc3)CC2C(=O)Nc2ccc([N+](=O)[O-])cc2O)cc1 (configuration not stated) | 5.44 µM
6 | Cc1cccc2sc(NNC(=O)c3ccc(S(=O)(=O)N4CCCC(C)C4)cc3)nc12 (configuration not stated) | 2.81 µM
7 | Cc1onc(-c2ccccc2)c1C(=O)NC(=S)NNC(=O)c1cc(-c2ccc(F)cc2)n[nH]1 | > 4.2 µM (inactive)
8 | O=C(CSc1ccc(-c2ccccn2)nn1)NC1CCCC1 | 11.1 µM
9 | COc1cccc(NC=C2C(=O)OC3(CCCCC3)OC2=O)c1 | 9.91 µM
10 | COc1nc(NC23CC4CC(CC(C4)C2)C3)nc(OC)n1 | 10.9 µM
11 | O=Nc1c(O)n(Cc2ccc(Cl)c(Cl)c2)c2ccccc12 | 6.59 µM
12 | O=c1[nH]c(=O)n(C2OC(CO)C(O)C2O)cc1F (configuration not stated) | 5.04 µM
13 | C[n+]1c2cc(N)ccc2cc2ccc(N)cc21 | 1.82 µM and 1 µM
14 | CCCNC(=O)c1ccc2c(=O)c(O)c(-c3ccc(F)cc3)[nH]c2c1 | 6.08 µM
15 | Cc1ccc(Sc2cc(C)nc(-c3ccccn3)n2)cc1 | 3.51 µM
16 | O=C(Nc1ccc(Br)c(C(F)(F)F)c1)c1ccccc1 | 4.78 µM
17 | CC1CC(C)CN(C(=O)c2cccc(S(=O)(=O)Nc3cc(C(F)(F)F)ccc3Cl)c2)C1 (configuration not stated) | 5.69 µM
18 | Cc1nnc(N/N=C/c2cccc(OCc3ccc(Cl)c(Cl)c3)c2)n1N | > 12 µM (inactive)
19 | O=C(O)CSc1nc(-c2ccc(Cl)cc2)nc2c1oc1ccccc12 | 6.02 µM
20 | CCCOc1ccc2ccccc2c1/C=C1\SC(=O)NC1=O | 5.65 µM
21 | COc1ccc2[nH]c(=O)c(CN(Cc3cccnc3)C(=O)Nc3ccccc3)cc2c1 | 6.16 µM
22 | CCCCCCCCCCCCCC(=O)NO | 0.727 µM
23 | O=C(CSc1ccc(-c2ccccn2)nn1)c1ccccc1 | 2.48 µM
24 | O=C(Sc1cccc2cccnc12)c1ccccc1Br | 6.63 µM

Row | SMILES | AC50
25 | Cc1cccc(NC(=S)NC(C)CCc2ccccc2)c1 (configuration not stated) | 7.92 µM
26 | O=Nc1c(O)c2ccccc2c2ccccc12 | 0.902 µM
27 | S=C1SCN(Cc2cccnc2)CN1Cc1cccnc1 | 4.06 µM
28 | COc1ccc2cnn(CCOc3cc(C)ccc3C(C)C)c(=O)c2c1OC | 5.9 µM
29 | CCCOc1ccc(C(=O)NNC(=S)NC(=O)CC)cc1 | 6.95 µM
30 | COc1cc(/C=N/O)cc(Br)c1OCc1cccc(Cl)c1 | 5.31 µM
31 | Cc1ccc(COc2ccc(Br)cc2/C=N/O)cc1 | 7.92 µM
32 | O=C(Nc1ccc(C2=NCCN2)cc1)c1ccc(C(=O)Nc2ccc(C3=NCCN3)cc2)c(Cl)c1 | 4.17 µM
33 | O=[N+]([O-])c1cc2oc3c(c2c(C=NCc2ccccc2)c1O)CCCC3 | 0.986 µM
34 | CCCCCCCN1N=C(C)C(C(=O)c2ccccc2)C1=O (configuration not stated) | 3.73 µM
35 | Cc1cccc(C)c1N1C(=O)C2ON(c3ccccc3)C(c3ccncc3)C2C1=O (configuration not stated) | 6.34 µM
36 | CC(C)(C)C(O)C(Cc1ccccc1Cl)n1cncn1 (configuration not stated) | 0.215 µM
37 | C[C@@]12C(=O)Nc3ccc(F)cc3C(=O)N1[C@H]1c3ccccc3OC[C@@H]1[C@@H]2c1ccccc1 | 8.46 µM
38 | O=C1CC(O)(C(F)(F)F)Oc2c1ccc1ccccc21 (configuration not stated) | 5.78 µM
39 | Oc1c(C(Nc2cccc(C(F)(F)F)c2)c2ccncc2)ccc2cccnc12 (configuration not stated) | 1.92 µM
40 | CC(=O)Nc1cccc(-c2cc(-c3c(Cl)cccc3Cl)no2)c1 | 3.12 µM
41 | CC1=CC(=O)C=C(C)C1=NOS(=O)(=O)c1ccccc1 | 4.15 µM
42 | O=C1OCC(CO)(CO)N=C1NNc1ccc(Cl)c(Cl)c1 | 1.87 µM
43 | Cc1ccccc1CN(C)CCS(=O)(=O)c1cc(Cl)ccc1Cl | > 12 µM (inactive)
44 | Nc1cc2c3ccccc3ccc2c2ccccc12 | 2.13 µM
45 | Cc1ccccc1C(=O)NNC(=S)NC(=O)c1ccc(Cl)cc1Cl | 2.36 µM
46 | Cc1ccc(-n2nnnc2C(Cl)c2nnnn2-c2ccc(C)cc2)cc1 | 3.4 µM
47 | Cc1ccc(NC(=O)c2cc(N3C(=O)C=CC3=O)ccc2Cl)cc1C | 1.63 µM
